This assay deals with Serine/threonine-protein kinase PLK1 (Homo sapiens, UniProt P53350). Kind of assay: Binding Assay. From the text: […] PDB fluorescence polarization competition binding assay using Plk.
Chain of Serine/threonine-protein kinase PLK1 (P53350 whole entry): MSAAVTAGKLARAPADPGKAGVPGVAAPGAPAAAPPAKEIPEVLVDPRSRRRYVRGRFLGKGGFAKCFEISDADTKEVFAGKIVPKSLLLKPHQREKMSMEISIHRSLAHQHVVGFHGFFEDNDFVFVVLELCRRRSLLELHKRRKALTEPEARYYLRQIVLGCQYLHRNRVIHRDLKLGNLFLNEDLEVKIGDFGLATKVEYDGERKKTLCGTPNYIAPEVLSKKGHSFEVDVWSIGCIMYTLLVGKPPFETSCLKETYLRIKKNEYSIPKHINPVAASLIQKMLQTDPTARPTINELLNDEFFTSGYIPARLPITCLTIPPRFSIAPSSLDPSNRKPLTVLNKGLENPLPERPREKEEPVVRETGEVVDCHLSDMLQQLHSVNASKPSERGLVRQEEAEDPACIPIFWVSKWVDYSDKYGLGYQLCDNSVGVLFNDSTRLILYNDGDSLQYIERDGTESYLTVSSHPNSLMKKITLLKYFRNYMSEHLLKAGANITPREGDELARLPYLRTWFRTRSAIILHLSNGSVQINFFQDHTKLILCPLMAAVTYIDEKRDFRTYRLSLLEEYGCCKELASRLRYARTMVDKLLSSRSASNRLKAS

Broadly, the IC50 is the point on the concentration scale where inhibition reaches its midpoint. Low readings indicate inhibition by little substance, high ones a need for much substance. Turning to `CC(=O)N(CCCCc1ccccc1)CC(=O)N[C@H](CC(C)C)C(=O)N[C@H](Cc1cnc[nH]1)C(=O)N[C@H](CO)C(=O)N[C@@H](C(N)=O)[C@@H](C)CP(=O)(O)O` [Peptide-peptoid hybrid, 13], the IC50 worked out at 71 nM.

(Values after BindingDB's records for doi:10.1002/cbic.201200206 (Frederick National Laboratory For Cancer Research, 2012).)
